Source: US11766423B2 (THE JOHNS HOPKINS UNIVERSITY, priority 2018, dated 2023)
Several values for one entry are separate records, joined by “and”; a condition that tells them apart may be missing. Equal entries are not always repeated. Entries after “also recorded” stand apart in the source; their conditions may differ.

Legend:
[1] = cited from earlier work
nSMase2 = details: literature value; read-out: nSMase2 IC50 of prototype inhibitor; cited from earlier work
GFAP-GFP mice [2] = experiment: Mouse model of brain inflammation, striatal IL-1β injection in GFAP-GFP mice
Rat primary astrocytes = experiment: GFAP immunofluorescence, activation of serum-deprived astrocytes; format: cell-based; details: 10 μM, 2 h; for GFAP levels without serum starvation: complete medium; for astrocyte activation (GFAP) in response to serum starvation: serum deprivation
Protocol: Media was collected after 2 h incubation and centrifuged at 2700 g for 15 minutes at 4° C. Supernatant was collected and the number of extracellular vesicles (EVs) was quantified using ZetaView Nanoparticle Tracker. The mean concentration of EVs/mL (±SEM) was calculated from 4 replicate experiments. […] GFP-containing exosomes released from astrocytes in the brain were quantified in plasma of mice 2.5 h following compound administration. Data are mean±SD, n=5-10 mice per condition. *, p<0.05 compared to saline control; ###, p<0.001 compared to IL1-β group; ***, p<0.001 compared to saline group. […] Astrocytes grown in complete medium were used as no treatment control. Cells were fixed and stained with anti-GFAP antibody (1:500, Sigma). Fluorescence intensity was measured using Image J. (FIG. 5D) Quantitation of fluorescence in (FIG. 5C). Bar graph represents background corrected mean fluorescence intensity measured from 100 astrocytes per condition. Error bars represent standard error of mean. One-way ANOVA followed by Tukey's posthoc test was performed;
Cells were fixed and immunofluorescence labeling for GFAP was performed.

primary astrocytes = experiment: Inhibition of exosome (EV) release from primary astrocytes; format: cell-based, mouse; details: 2 h; for effect on exosome (EV) release in vitro, in words: primary astrocytes, FBS withdrawal, 0.03-30 μM
acid sphingomyelinase = target: T1, acid sphingomyelinase (Homo sapiens, UniProt P17405); experiment: Acid sphingomyelinase selectivity study, standard protocol; format: biochemical; details: results not shown
T1 sequence (P17405 47-631): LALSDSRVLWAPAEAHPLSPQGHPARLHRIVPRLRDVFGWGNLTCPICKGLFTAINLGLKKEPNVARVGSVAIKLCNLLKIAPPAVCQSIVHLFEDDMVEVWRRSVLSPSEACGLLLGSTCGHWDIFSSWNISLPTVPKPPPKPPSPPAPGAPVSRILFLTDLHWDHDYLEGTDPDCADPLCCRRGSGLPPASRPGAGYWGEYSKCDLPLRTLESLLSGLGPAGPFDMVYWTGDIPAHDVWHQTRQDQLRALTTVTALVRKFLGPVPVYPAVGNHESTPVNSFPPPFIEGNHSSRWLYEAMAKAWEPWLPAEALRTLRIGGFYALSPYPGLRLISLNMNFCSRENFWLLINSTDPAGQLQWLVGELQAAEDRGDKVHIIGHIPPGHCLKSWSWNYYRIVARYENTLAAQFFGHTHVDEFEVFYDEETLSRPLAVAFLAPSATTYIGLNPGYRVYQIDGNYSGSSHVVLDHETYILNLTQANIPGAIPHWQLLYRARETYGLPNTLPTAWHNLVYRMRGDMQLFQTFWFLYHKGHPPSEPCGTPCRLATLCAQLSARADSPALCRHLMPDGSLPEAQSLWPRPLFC

alkaline phosphatase = experiment: Counter assay without nSMase2, phosphorylcholine as substrate; format: biochemical; details: phosphorylcholine 2 μM, no nSMase2, no SM; read-out: IC50 alkaline phosphatase in counter screen
Protocol: Following assay validation, 365,000 compounds were screened from the Molecular Libraries Small Molecule Repository (MLSMR) and 2816 compounds were screened from the NCGC pharmaceutical collection (NPC) library for human nSMase2 inhibitors. Compounds were screened at 4 concentrations: 1.1 μM, 11 μM, 57 μM and 114 μM. Cambinol (full does response in each plate) was used as positive control. After eliminating promiscuous compounds, 1990 compounds that had maximal inhibitory responses >50% at the highest concentration tested and robust curve response classes (CRC) (Inglese, et al., 2006) were selected for re-testing in the same human nSMase2 activity assay and counter screen. […] There were a total of 220 compounds for follow-up confirmation (FIG. 2A).

[3] = Metabolic stability in mouse liver microsomes; format: in vitro ADME
Protocol: (§1) One potential liability when using chemical probes in vivo is lack of metabolic stability which structurally inactivates the compound before it can reach its molecular target. […] Percent of drug remaining over time was determined by liquid chromatography-tandem mass spectrometry analysis (LC/MS/MS).
(§2) Metabolic stability assay was conducted in mouse or human liver microsomes as has been described previously (Rais, et al., 2016) with minor modifications. Briefly, the reaction was carried out using potassium phosphate buffer (100 mM, pH 7.4), in the presence of an NADPH regenerating system (compound final concentration was 1 μM; 0.2 mg/mL microsomes). Compound disappearance was monitored over time using a liquid chromatography and tandem mass spectrometry (LC/MS/MS) method. Chromatographic analysis was performed using an Accela ultra high-performance system consisting of an analytical pump and an autosampler coupled with a TSQ Vantage mass spectrometer (Thermo Fisher Scientific Inc., Waltham, Mass.). […] The mobile phase consisted of 0.1% formic acid in acetonitrile and 0.1% formic acid in water with gradient elution.

human nSMase2 = target: T2, human nSMase2 (Homo sapiens, UniProt Q9NY59); experiment: Fluorescence-based (Amplex Red) human nSMase2 activity assay; details: rate vs SM concentration at several DPTIP concentrations
T2 sequence (Q9NY59 1-655): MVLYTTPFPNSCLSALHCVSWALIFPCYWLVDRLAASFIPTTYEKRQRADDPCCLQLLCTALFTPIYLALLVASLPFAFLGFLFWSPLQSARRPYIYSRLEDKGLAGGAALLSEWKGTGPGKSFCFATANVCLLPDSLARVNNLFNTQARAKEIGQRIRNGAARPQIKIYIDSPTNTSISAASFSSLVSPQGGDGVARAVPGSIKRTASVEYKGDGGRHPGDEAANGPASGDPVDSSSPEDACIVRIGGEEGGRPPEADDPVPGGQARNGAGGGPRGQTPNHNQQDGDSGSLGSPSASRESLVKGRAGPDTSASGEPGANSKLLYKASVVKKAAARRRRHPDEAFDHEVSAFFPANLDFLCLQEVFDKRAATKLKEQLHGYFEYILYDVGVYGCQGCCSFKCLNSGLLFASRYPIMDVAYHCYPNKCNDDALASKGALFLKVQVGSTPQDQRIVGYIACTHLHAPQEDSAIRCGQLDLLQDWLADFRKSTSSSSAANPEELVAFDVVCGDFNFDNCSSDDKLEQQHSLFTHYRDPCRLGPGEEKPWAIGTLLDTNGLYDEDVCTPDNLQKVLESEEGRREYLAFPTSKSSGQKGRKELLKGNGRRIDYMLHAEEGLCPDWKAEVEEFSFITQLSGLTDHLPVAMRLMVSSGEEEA

[4] = in 19 of 759 bioassays; cited from earlier work
[5] = Metabolic stability in human liver microsomes; format: in vitro ADME
Protocol: as §1, §2

GFAP-GFP mice [6] = details: co-injection with IL-1β, Dickens et al. 2017; cited from earlier work
[7] = 10 mg/kg IP 0.5 h before IL-1β, 2 h post IL-1β
[8] = 10 mg/kg IP, liver qRT-PCR 2 h post IL-1β

SMILES: O=c1[nH]c(=S)[nH]c(-c2ccccc2)c1Cc1c(O)ccc2ccccc12 [Cambinol]
- in vivo pharmacokinetic profile, in words [1]: poor in vivo pharmacokinetic profile

SMILES: COc1cc(OC)cc(-c2nc(-c3cccs3)c(-c3ccccc3)[nH]2)c1 [DPT, 2-(3,5-dimethoxyphenyl)-5-phenyl-4-(thiophen-2-yl)-1H-imidazole]
- effect on IL-1β-induced EV release in vivo, in words (GFAP-GFP mice [2]; [7]): no significant difference
- effect on IL-1β-induced EV release in vivo, in words (GFAP-GFP mice [2]; 10 mg/kg IP 0.5 h before IL-1β, 2 h post IL-1β, listed as des-hydroxyl analog): no difference
- effect on IL-1β-induced EV release in vivo, in words (GFAP-GFP mice [2]; 10 mg/kg IP 0.5 h before IL-1β, 2 h post IL-1β, listed as inactive analog): no statistically significant effect
- effect on IL-1β-induced upregulation of liver cytokines (GFAP-GFP mice [2]; [8]): no effect
- effects on production of TNF-α and IL-6 (GFAP-GFP mice [2]; [8]): marginal and not statistically significant
- reduction in CCL2 production (GFAP-GFP mice [2]; [8]): not statistically significant
- GFAP levels without serum starvation (Rat primary astrocytes): did not change GFAP levels
- astrocyte activation (GFAP) in response to serum starvation (Rat primary astrocytes): failed to prevent astrocyte activation
- effect on exosome (EV) release in vitro, in words (primary astrocytes; listed as des hydroxyl inactive analog of DPTIP): did not inhibit
- effect on exosome (EV) release in vitro, in words (primary astrocytes; listed as des-hydroxyl analog): no effect
- effect on exosome (EV) release in vitro, in words (primary astrocytes; listed as inactive analog): no effect

SMILES: COc1cc(-c2nc(-c3cccs3)c(-c3ccccc3)[nH]2)cc(OC)c1O [DPTIP, 2,6-dimethoxy-4-(5-phenyl-4-thiophen-2-yl-1H-imidazol-2-yl)-phenol]
- IC50 (acid sphingomyelinase): > 100 µM
- IC50 (alkaline phosphatase): > 100 µM
- effect on IL-1β-induced EV release in vivo, in words (GFAP-GFP mice [2]; [7]): inhibitor of EV release; also recorded: inhibits exosome release
- reduction of IL-1β-induced astrocyte-derived (GFP+) EVs in plasma (GFAP-GFP mice [2]; [7]): 51±13% and 70%
- effect on IL-1β-induced upregulation of liver cytokines (GFAP-GFP mice [2]; [8]): inhibited
- metabolic stability, in words ([3]; mouse liver microsomes with NADPH): metabolically stable
- percent remaining ([3]; mouse liver microsomes, NADPH, 1 h, 1 μM compound): 100%
- GFAP levels without serum starvation (Rat primary astrocytes): did not change GFAP levels
- astrocyte activation (GFAP) in response to serum starvation (Rat primary astrocytes): prevented astrocyte activation
- mode of inhibition with respect to sphingomyelin (human nSMase2): noncompetitive inhibition; also recorded: non-competitive
- weak activity observed in NCATS bioassays [4]: 2 to 50 µM
- metabolic stability, in words ([5]; human liver microsomes with NADPH): metabolically stable
- percent remaining ([5]; human liver microsomes, NADPH, 1 h, 1 μM compound): 100%
- EC50 (primary astrocytes; Mus musculus, Astrocyte, primary astrocytes activated by FBS withdrawal, 2 h treatment): ~3 µM
- effect on exosome (EV) release in vitro, in words (primary astrocytes): inhibited exosome release from astrocytes in a dose dependent manner; also recorded: inhibitor of EV release; also recorded: inhibits exosome release

SMILES: COc1cc(O)c(C(=O)O)c(-c2cc(O)c(O)cc2C)c1 [altenusin]
- neutrophil infiltration into brain parenchyma (GFAP-GFP mice [6]): suppresses neutrophil infiltration
